We go through 8 molecules from patent US5679677A, “Heterocyclic carbamates, process for their preparation and medicaments” (Luitpold Pharma GmbH, priority 1993, dated 1997).

Molecules are shown by their SMILES. Entries after “also recorded” stand apart in the source; their conditions may differ. Counter-ions that a name gives are not always drawn.

For data set [1], the target named is T1, elastase from human granulocytes (Homo sapiens, UniProt P08246).
T1 construct: from tissue; host or cells: human granulocytes
T1 sequence (P08246 30-247 limits assumed): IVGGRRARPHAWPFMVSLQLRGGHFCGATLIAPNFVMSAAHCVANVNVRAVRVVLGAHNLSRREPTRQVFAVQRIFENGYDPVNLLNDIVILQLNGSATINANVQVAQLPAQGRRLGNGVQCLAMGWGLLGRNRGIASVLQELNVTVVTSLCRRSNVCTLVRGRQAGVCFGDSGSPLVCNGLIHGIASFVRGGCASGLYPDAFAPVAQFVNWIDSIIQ
Nature of the data set: Inhibition of granulocyte elastase (enzyme inhibition test, substrate L-pyroglutaminyl-L-prolyl-L-valine-p-nitroanilide). The class given is biochemical. The conditions noted are these: substrate L-pyroglutaminyl-L-prolyl-L-valine-p-nitro-anilide, read-out: IC50 (concentration for 50% inhibition) of granulocytic elastase. Here is the method:
The inhibition of granulocyte elastase was determined in an enzyme inhibition test using elastase from human granulocytes. In this test the specific substrate L-pyroglutaminyl-[…]-nitro-anilide was used ([…] et al., Scand. J. Lab. Invest. 43 (1983) 427-432). The IC50 values (concentrations for 50% inhibition) are shown in Table 1 for exemplary compounds according to the invention.

Data set [2] is described as follows: Antithrombotic action in the tail-bleeding time model on the rat (modified test according to Diness). The class given is in vivo. The conditions noted are these: groups of 10, oral administration, 200 mg/kg. Here is the method: The compound from Example 14 at a dose of 200 mg/kg thus prolonged the bleeding time by 103%.
Data set [3] can be described thus: Hygroscopicity of isolated solid. The data set is classed as physicochemical. The conditions noted are these: hydrochloride.

Consider `O=C(Oc1ccccc1)n1ncc2ccccc2c1=O` [Example 1, Phenyl 1(2 H)-phthalazinone-N-carboxylate], for which, in data set [1], the IC50 was found to be 0.2 µM.

With `CCOC(=O)n1ccc2ccccc2c1=O` [Example 2], the IC50 in data set [1] turned out to be 0.3 µM. Regarding `COC(=O)c1ccc(OC(=O)n2nnc3ccccc3c2=O)cc1` [Example 4], the IC50 in data set [1] stood at 8.3 µM. In the case of `Cc1nn(C(=O)Oc2ccccc2)c(=O)c2ccccc12` [Example 6], in data set [1], the IC50 was 0.75 µM. The same measure, in the same setting: to `O=C(Oc1ccccc1)n1c(SCc2ccccc2)nc2ccccc2c1=O` [Example 13] belongs 4 µM. Regarding `CCOC(=O)n1c(SCc2ccccc2)nc2ccccc2c1=O` [Example 14], in data set [2], the “prolongation of the bleeding time” value came to 103%. In data set [1], the IC50 stood at 6 µM. `CCOC(=O)Oc1cccc2c(=O)n(C(=O)OCC)ccc12` [Example 15, Ethyl 5-ethoxycarbonyloxyisoquinolin-1(2 H)-one-N-carboxylate]: the IC50 in data set [1] was 5.4 µM. `CN1CCCC(OC(=O)n2ccc3ccccc3c2=O)C1` (stereo not drawn) [Example 19, N'-Methylpiperidin-3-yl isoquinolin-1(2 H)-one-N-carboxylate hydrochloride]: the “hygroscopicity / behaviour in air (in words)” value in data set [3] is “very hygroscopic; also recorded: deliquesces in air”.
